According to patent US9580416B2, “Inhibitors of Bruton's tyrosine kinase” (PHARMACYCLICS LLC, priority 2014, dated 2017):

What was measured:
Assay type in all cases: biochemical
Btk = Btk (Homo sapiens, UniProt Q06187); experiment: Btk kinase activity, TR-FRET assay; conditions: read-out: Btk (IC50)
Summary of the method: (§1)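 Enzyme (Btk 0.5 nM; Lck 6 nM) reacted 1 h with inhibitor, ATP at Km and biotin-peptide substrate in pH 7.4 buffer, 10% DMSO. Phosphopeptide detected by Eu-p-Tyr100 antibody plus streptavidin-APC (665/615 nm). IC50 calculated from fitted Ki(app) via ATP/Km correction plus half total enzyme.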

Lck = Lck (Homo sapiens, UniProt P06239); experiment: Lck kinase activity, TR-FRET assay; conditions: read-out: LCK (IC50)
Chain of Lck (P06239 whole entry, species assumed): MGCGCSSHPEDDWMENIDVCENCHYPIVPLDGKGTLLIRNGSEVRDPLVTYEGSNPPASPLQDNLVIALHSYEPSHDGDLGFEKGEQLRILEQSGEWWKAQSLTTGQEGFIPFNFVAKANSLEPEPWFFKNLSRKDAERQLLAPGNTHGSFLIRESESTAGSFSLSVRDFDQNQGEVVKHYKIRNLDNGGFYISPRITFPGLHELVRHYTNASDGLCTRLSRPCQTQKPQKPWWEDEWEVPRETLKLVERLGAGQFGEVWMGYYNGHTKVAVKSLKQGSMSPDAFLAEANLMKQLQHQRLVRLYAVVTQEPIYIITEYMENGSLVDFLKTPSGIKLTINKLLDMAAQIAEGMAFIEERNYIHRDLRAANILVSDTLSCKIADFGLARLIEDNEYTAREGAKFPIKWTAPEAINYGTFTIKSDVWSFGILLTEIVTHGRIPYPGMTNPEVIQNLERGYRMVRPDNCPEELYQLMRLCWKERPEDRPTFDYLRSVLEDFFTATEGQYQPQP
Summary of the method: as §1

EGFR = EGFR (Homo sapiens, UniProt P00533); experiment: Inhibition of a panel of kinases, in vitro HotSpot kinase assay: EGFR
Chain of EGFR (P00533 25-1210): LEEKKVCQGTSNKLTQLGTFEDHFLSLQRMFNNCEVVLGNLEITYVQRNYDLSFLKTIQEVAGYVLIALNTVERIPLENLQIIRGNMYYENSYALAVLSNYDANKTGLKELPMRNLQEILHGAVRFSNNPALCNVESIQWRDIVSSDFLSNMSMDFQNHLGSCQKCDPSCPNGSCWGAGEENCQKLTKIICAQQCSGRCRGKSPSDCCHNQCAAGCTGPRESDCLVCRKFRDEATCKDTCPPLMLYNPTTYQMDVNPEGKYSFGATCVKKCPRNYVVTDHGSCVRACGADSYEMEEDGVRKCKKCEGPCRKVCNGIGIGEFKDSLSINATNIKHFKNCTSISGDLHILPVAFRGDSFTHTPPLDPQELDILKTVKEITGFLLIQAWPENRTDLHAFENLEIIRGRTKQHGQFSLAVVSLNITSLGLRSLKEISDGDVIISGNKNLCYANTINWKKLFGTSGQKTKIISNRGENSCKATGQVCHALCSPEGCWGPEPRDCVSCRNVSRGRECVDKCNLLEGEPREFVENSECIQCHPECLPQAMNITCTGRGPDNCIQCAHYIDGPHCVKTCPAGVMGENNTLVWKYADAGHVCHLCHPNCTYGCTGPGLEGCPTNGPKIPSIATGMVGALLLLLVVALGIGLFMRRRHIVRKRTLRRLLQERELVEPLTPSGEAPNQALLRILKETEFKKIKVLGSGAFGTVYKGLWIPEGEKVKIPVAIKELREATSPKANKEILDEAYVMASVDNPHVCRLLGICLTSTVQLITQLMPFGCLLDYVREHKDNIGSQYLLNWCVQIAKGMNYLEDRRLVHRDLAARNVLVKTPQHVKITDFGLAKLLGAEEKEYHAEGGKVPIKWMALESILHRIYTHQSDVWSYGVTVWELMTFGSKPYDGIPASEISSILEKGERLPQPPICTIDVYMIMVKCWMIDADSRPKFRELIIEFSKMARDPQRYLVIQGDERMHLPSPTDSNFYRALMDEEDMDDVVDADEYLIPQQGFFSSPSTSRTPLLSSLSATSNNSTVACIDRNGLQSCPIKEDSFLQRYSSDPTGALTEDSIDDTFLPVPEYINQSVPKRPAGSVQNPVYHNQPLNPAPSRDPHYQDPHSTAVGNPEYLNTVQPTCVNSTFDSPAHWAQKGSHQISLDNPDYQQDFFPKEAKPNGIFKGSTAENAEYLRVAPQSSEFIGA
Protocol: (§2) The degree of inhibition of a panel of kinases is determined using the in vitro HotSpot kinase assay (purified enzymes, ^33P-ATP, an appropriate substrate and 1 uM ATP).

JAK3 = biological target: T1, JAK3 (Homo sapiens, UniProt P52333); experiment: Inhibition of a panel of kinases, in vitro HotSpot kinase assay: JAK3
T1 sequence (P52333 1-1124): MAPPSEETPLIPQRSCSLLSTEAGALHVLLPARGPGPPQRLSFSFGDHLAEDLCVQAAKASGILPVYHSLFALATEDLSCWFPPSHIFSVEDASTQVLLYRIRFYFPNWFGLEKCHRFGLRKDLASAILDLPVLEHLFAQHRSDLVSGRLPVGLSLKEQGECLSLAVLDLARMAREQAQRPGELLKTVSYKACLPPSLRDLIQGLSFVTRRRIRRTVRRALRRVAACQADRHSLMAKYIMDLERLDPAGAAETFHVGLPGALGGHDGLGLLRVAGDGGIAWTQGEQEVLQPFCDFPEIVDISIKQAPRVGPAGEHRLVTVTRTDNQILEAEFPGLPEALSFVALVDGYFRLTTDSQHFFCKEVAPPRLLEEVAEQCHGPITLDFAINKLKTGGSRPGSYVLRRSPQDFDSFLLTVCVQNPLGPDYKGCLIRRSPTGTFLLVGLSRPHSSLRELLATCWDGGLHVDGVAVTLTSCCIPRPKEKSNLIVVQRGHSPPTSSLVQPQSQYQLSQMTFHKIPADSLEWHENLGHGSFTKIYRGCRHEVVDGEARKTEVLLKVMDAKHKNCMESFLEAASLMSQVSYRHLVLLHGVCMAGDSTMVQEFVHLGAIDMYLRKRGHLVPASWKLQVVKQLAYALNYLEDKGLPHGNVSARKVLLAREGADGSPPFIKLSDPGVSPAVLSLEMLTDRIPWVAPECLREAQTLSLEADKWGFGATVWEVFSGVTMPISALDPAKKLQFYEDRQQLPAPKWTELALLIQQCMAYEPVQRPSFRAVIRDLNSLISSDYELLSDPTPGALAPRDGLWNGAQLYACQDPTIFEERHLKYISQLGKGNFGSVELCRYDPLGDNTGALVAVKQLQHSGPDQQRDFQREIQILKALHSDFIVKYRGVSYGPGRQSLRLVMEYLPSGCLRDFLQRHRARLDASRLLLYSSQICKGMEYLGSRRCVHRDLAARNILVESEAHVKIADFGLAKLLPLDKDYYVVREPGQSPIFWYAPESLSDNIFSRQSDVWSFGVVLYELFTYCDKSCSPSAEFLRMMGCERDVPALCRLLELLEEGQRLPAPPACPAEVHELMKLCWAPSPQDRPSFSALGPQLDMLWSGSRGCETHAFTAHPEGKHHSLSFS
Protocol: as §2

Chain of Btk (Q06187 whole entry): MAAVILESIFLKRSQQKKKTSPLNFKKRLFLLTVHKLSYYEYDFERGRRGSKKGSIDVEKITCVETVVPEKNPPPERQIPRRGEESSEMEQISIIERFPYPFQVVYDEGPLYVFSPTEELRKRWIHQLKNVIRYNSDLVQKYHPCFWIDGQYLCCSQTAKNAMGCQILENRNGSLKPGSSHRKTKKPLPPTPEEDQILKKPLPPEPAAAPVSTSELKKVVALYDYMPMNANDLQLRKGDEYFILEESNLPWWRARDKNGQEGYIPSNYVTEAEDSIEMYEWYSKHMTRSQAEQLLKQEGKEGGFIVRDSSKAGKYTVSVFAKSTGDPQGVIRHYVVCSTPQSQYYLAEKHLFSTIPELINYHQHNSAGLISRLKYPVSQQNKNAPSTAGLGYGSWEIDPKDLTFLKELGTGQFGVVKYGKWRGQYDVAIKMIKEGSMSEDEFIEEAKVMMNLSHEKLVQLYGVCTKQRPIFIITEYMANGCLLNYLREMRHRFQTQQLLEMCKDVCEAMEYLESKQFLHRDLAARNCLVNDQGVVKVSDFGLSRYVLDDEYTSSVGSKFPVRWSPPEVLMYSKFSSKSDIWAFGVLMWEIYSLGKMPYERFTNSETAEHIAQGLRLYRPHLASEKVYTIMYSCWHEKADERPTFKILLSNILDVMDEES

Row | SMILES | IC50 (Btk) | IC50 (Lck) | IC50 (EGFR) | IC50 (JAK3)
1 | CCOP(=O)(CCCC(=O)N1CCC[C@@H](Nc2n[nH]c3nccc(Oc4ccc(C(=O)Nc5cc(C)ccn5)cc4)c23)C1)OCC [compound 271, (R)-diethyl 4-(3-(4-(4-(4-methylpyridin-2-ylcarbamoyl)phenoxy)-1H-pyrazolo[3,4-b]pyridin-3-ylamino)piperidin-1-yl)-4-oxobutylphosphonate] | < 100 nM | 100 to 1000 nM | > 10 µM | > 10 µM
2 | CCOP(=O)(CC(=O)N1CCC[C@@H](Nc2n[nH]c3nccc(Oc4ccc(C(=O)Nc5cc(C)ccn5)cc4)c23)C1)OCC [compound 272, (R)-diethyl 2-(3-(4-(4-(4-methylpyridin-2-ylcarbamoyl)phenoxy)-1H-pyrazolo[3,4-b]pyridin-3-ylamino)piperidin-1-yl)-2-oxoethylphosphonate] | < 100 nM | 100 to 1000 nM | > 10 µM | > 10 µM
3 | CCOP(=O)(CCC(=O)N1CCC[C@@H](Nc2n[nH]c3nccc(Oc4ccc(C(=O)Nc5cc(C)ccn5)cc4)c23)C1)OCC [compound 273, (R)-diethyl 3-(3-(4-(4-(4-methylpyridin-2-ylcarbamoyl)phenoxy)-1H-pyrazolo[3,4-b]pyridin-3-ylamino)piperidin-1-yl)-3-oxopropylphosphonate] | < 100 nM | 1000 to 10000 nM | > 10 µM | > 10 µM
4 | COCCCC(=O)N1CCC[C@@H](Nc2n[nH]c3nccc(Oc4ccc(C(=O)Nc5cc(C)ccn5)cc4)c23)C1 [compound 274, (R)-4-(3-(1-(4-methoxybutanoyl)piperidin-3-ylamino)-1H-pyrazolo[3,4-b]pyridin-4-yloxy)-N-(4-methylpyridin-2-yl)benzamide] | < 100 nM | 100 to 1000 nM | > 10 µM | > 10 µM
5 | Cc1ccnc(NC(=O)c2ccc(Oc3ccnc4[nH]nc(N[C@@H]5CCN(C#N)C5)c34)cc2)c1 [compound 275, (R)-4-(3-(1-cyanopyrrolidin-3-ylamino)-1H-pyrazolo[3,4-b]pyridin-4-yloxy)-N-(4-methylpyridin-2-yl)benzamide] | < 100 nM | 100 to 1000 nM | 1 to 10 µM | > 10 µM
6 | Cc1ccnc(NC(=O)c2ccc(Oc3ccnc4[nH]nc(N[C@@H]5CCCN(C#N)C5)c34)cc2)c1 [compound 276, (R)-4-(3-(1-cyanopiperidin-3-ylamino)-1H-pyrazolo[3,4-b]pyridin-4-yloxy)-N-(4-methylpyridin-2-yl)benzamide] | < 100 nM | 100 to 1000 nM | 1 to 10 µM | > 10 µM
7 | Cc1ccnc(NC(=O)c2ccc(Oc3ccnc4[nH]nc(NC5CCN(C(=O)C6(C#N)CC6)CC5)c34)cc2)c1 [compound 277, 4-(3-(1-(1-cyanocyclopropanecarbonyl)piperidin-4-ylamino)-1H-pyrazolo[3,4-b]pyridin-4-yloxy)-N-(4-methylpyridin-2-yl)benzamide] | 100 to 1000 nM | 1000 to 10000 nM | 1 to 10 µM | > 10 µM
8 | Cc1ccnc(NC(=O)c2ccc(Oc3ccnc4[nH]nc(NC5CCN(C#N)CC5)c34)cc2)c1 [compound 278, 4-(3-(1-cyanopiperidin-4-ylamino)-1H-pyrazolo[3,4-b]pyridin-4-yloxy)-N-(4-methylpyridin-2-yl)benzamide] | < 100 nM | 100 to 1000 nM | 1 to 10 µM | > 10 µM

Results, then the compound that gave them:

Row | IC50 (Btk) | IC50 (Lck) | IC50 (EGFR) | IC50 (JAK3) | SMILES
9 | < 100 nM | 100 to 1000 nM | 0.1 to 1 µM | > 10 µM | Cc1ccnc(NC(=O)c2ccc(Oc3ccnc4[nH]nc(N[C@@H]5CCCN(C(=O)C(N)=O)C5)c34)cc2)c1 [compound 270, (R)-4-(3-(1-(2-amino-2-oxoacetyl)piperidin-3-ylamino)-1H-pyrazolo[3,4-b]pyridin-4-yloxy)-N-(4-methylpyridin-2-yl)benzamide]
10 | < 100 nM | 1000 to 10000 nM | > 10 µM | > 10 µM | Cc1ccnc(NC(=O)c2ccc(Oc3ccnc4[nH]nc(N[C@@H]5CCN(C(=O)C6(C#N)CC6)C5)c34)cc2)c1 [compound 279, (R)-4-(3-(1-(1-cyanocyclopropanecarbonyl)pyrrolidin-3-ylamino)-1H-pyrazolo[3,4-b]pyridin-4-yloxy)-N-(4-methylpyridin-2-yl)benzamide]
11 | < 100 nM | 100 to 1000 nM | > 10 µM | > 10 µM | CC#CC(=O)N1CCC[C@@H](Nc2n[nH]c3nccc(Oc4ccc(C(=O)Nc5cc(C)ccn5)cc4)c23)C1 [compound 280, (R)-4-(3-(1-but-2-ynoylpiperidin-3-ylamino)-1H-pyrazolo[3,4-b]pyridin-4-yloxy)-N-(4-methylpyridin-2-yl)benzamide]
12 | < 100 nM | 1000 to 10000 nM | 1 to 10 µM | 0.1 to 1 µM | COCC#CC(=O)N1CCC[C@@H](Nc2n[nH]c3nccc(Oc4ccc(C(=O)Nc5cc(C)ccn5)cc4)c23)C1 [compound 281, (R)-4-(3-(1-(4-methoxybut-2-ynoyl)piperidin-3-ylamino)-1H-pyrazolo[3,4-b]pyridin-4-yloxy)-N-(4-methylpyridin-2-yl)benzamide]
13 | < 100 nM | 100 to 1000 nM | 0.1 to 1 µM | 0.1 to 1 µM | Cc1ccnc(NC(=O)c2ccc(Oc3ccnc4[nH]nc(N[C@@H]5CCCN(C(=O)C#CCO)C5)c34)cc2)c1 [compound 282, (R)-4-(3-(1-(4-hydroxybut-2-ynoyl)piperidin-3-ylamino)-1H-pyrazolo[3,4-b]pyridin-4-yloxy)-N-(4-methylpyridin-2-yl)benzamide]
14 | < 100 nM | 100 to 1000 nM | > 10 µM | > 10 µM | Cc1ccnc(NC(=O)c2ccc(Oc3ccnc4[nH]nc(N[C@@H]5CCCN(C(=O)C6(C)CCN(C)CC6)C5)c34)cc2)c1 [compound 283, (R)-4-(3-(1-(1,4-dimethylpiperidine-4-carbonyl)piperidin-3-ylamino)-1H-pyrazolo[3,4-b]pyridin-4-yloxy)-N-(4-methylpyridin-2-yl)benzamide]
15 | 100 to 1000 nM | 100 to 1000 nM | > 10 µM | > 10 µM | Cc1ccnc(NC(=O)c2ccc(Oc3ccnc4[nH]nc(NC5CCN(C(=O)C6(C)CCN(C)CC6)CC5)c34)cc2)c1 [compound 284, 4-(3-(1-(1,4-dimethylpiperidine-4-carbonyl)piperidin-4-ylamino)-1H-pyrazolo[3,4-b]pyridin-4-yloxy)-N-(4-methylpyridin-2-yl)benzamide]
